Data from US12558386B2, “Methods and compositions to modulate antibiotic resistance and gastrointestinal microbiota” (OHIO STATE INNOVATION FOUNDATION, priority 2018, dated 2026).
≈ marks a conversion by molar mass, not a printed value.

How the values were obtained:
[1] = system: blaCMY-2 gene pool; test: Chicken model, qPCR of fecal DNA; format: in vivo, Leghorn chicken; conditions: Lc = Lc-Amp group, Amp = Saline-Amp group
Source text: (§1) The chicken model. All procedures were approved by the Institutional Animal Care and Use Committee (protocol No. 2012A00000061, The Ohio State University, Columbus, OH). Leghorn chicken were hatched and maintained at the Ohio Agricultural Research and Development Center (OARDC) poultry research teaching farm (two birds per cage with separate feed and water supply, controlled temperature, filtered air in the room and sterilized feed). Chicken fecal samples were collected on-site and examined for the presence of blaCMY-2 gene pools and microbial profile. Beginning on Day 5 post-hatch, chicken were inoculated with a blaCMY-2^+ E. coli cocktail (0.2 mL/bird, 10^6 CFU/mL) every 24 hours for 4 consecutive days via gavage feeding using 20 ga×1.5 inch animal feeding needle (Fine Science Tools, Foster City, CA, USA). Chickens in non-inoculated control groups were fed with 0.2 mL of saline by the same method. Chickens were then set in cages for 11 days before antibiotic treatment, allowing the microbiota to stabilize.
(§2) Lactobacillus crispatus and antibiotic administration. Lactobacillus crispatus CG-12 was susceptible to ampicillin. To monitor the impact of CG-12 on AR profiles during common ampicillin administration practice, low veterinary Amp dosages (30 mg/kg body weight per day) were selected instead of 300 mg/kg/day. Lactobacillus crispatus CG-12 was administrated in three periods: 1) Day 2 to Day 4 post-hatch; 2) throughout the stabilization; and 3) post-antibiotic challenge on Day 25 to Day 28. During these periods, chickens were inoculated with a Lactobacillus crispatus CG-12 suspension (0.2 mL/bird, 10^6 CFU/mL) every 24 hours for 4 consecutive days via gavage feeding using 20 ga×1.5 inch animal feeding needle (Fine Science Tools, Foster City, CA, USA). Each group contained at least 6 chickens.
(§3) Sample collection. Fresh feces were collected from each chicken on-site in the rearing facility. Fecal samples were collected at the 1st and last day of Lactobacillus inoculation, once a day during the antibiotic administration period, and once every three days during antibiotic withdrawal period up to 14 days from initial antibiotic exposure.
(§4) DNA extraction. Total DNA from chicken fecal samples for real-time quantitative PCR (qPCR) and denaturing gradient gel electrophoresis (DGGE) analyses were extracted according to a published method (Yu and Morrison 2004).
(§5) Real-time quantitative PCR. TaqMan real-time PCR protocol was used to assess blaCMY-2 and 16S rRNA gene pools in total DNA extracted from chicken fecal samples, as described previously (Zhang et al., 2013). […] Each sample was assessed and analyzed in duplicates on a CFX96 system (Bio-Rad, Hercules, CA, USA).

[2] = system: 16S rRNA gene pool; test: Chicken model, qPCR of fecal DNA; format: in vivo, Leghorn chicken; conditions: Lc = Lc-Amp group, Amp = Saline-Amp group
Source text: as §1, §2, §3, §4, §5

[3] = system: Lactobacillus crispatus CG-12; test: MIC assessment (TREK Sensititre); format: cell-based; conditions: Lactobacillus crispatus, CG12; L. crispatus CG-12; read-out: MIC
Experimental: Multiple commensal bacterial strains from chicken feces were recovered from Columbia blood Agar base (Becton, […] Dickinson and Company, Franklin Lakes, NJ) supplemented with 5% defibrinated sheep blood (Thermo Scientific™, Grand Island, NY), and maintained in Columbia broth (Becton Dickinson and Company, Franklin Lakes, NJ) and propagated by anaerobic growth at 37° C. The strains were subjected to antibiotic susceptibility assessment followed by strain identification.
Minimum inhibition concertation (MIC) assessment. A TREK Sensititre diagnostic system (Thermo scientific, Oakwood Village, OH, USA) was used to assess the AR phenotype and MIC of isolated strains. Protocols to use this system can be found on www.trekds.com. Cation-adjusted Mueller Hinton Broth (Becton, Dickinson and Company, MD, USA) was used as basic medium.

[4] = Day 21, during oral Amp 30 mg/kg/day

CC1(C)S[C@@H]2[C@H](NC(=O)[C@H](N)c3ccccc3)C(=O)N2[C@H]1C(=O)O [AMP, ampicillin]
blaCMY-2 gene pool [1, 4]: 8.7±0.8 log10 (gene copies/g)
blaCMY-2 gene pool ([1]; Day 25, after Amp treatment): 9.8±0.9 log10 (gene copies/g)
16S rRNA gene pool [2, 4]: 8.5±0.7 log10 (gene copies/g)
16S rRNA gene pool ([2]; Day 25, after Amp treatment): 10.5±1.0 log10 (gene copies/g)
MIC [3]: 0.5 µg/mL (≈ 1.43 µM)
